Results published in paper PMC2375326, “In vitro evaluation of amino acid prodrugs of novel antitumour 2-(4-amino-3-methylphenyl)benzothiazoles” (British Journal of Cancer, 2002).

Tests used:
[1] = system: MCF-7 (ER+) human derived breast carcinoma cells; test: Growth inhibitory assay (MTT), MCF-7; assay type: cell-based; conditions: MCF7, ER+ MCF-7, 3 days (72 h) treatment, n=8, representative mean, ^a = biphasic dose response
Protocol: (§1) Prodrugs were prepared as 10 mM top stocks, dissolved in dimethylsulphoxide (DMSO) or sterile ddH2O, and stored at 4°C, protected from light for a maximum period of 4 weeks. MCF-7 (ER+) and MDA 468 (ER−) human derived breast carcinoma cells, cultivated at 37°C in an atmosphere of 5% CO2 in RPMI 1640 medium supplemented with 2 mM L-glutamine and 10% foetal calf serum, were routinely subcultured twice weekly to maintain continuous logarithmic growth. Cells were seeded into 96-well microtiter plates at a density of 5×10^3 per well and allowed 24 h to adhere before drugs were introduced (final concentration 0.1 nM–100 μM, n=8). Serial drug dilutions were prepared in medium immediately prior to each assay. Viable cell masses at the time of drug addition (time-zero), and following 72 h drug exposure were determined by cell-mediated 3-(4,5-dimethylthiazol-2-yl)-2,5-diphenyltetrazolium bromide (MTT) reduction. MTT was added to each well (final concentration 400 μg ml^−1) and plates were incubated at 37°C for 4 h to allow reduction of MTT by viable cell dehydrogenases to an insoluble formazan product. Well supernatants were aspirated and cellular formazan solubilised by addition of DMSO : glycine buffer (pH 10.5) (4 : 1). Cell growth as well as drug activity were determined by measuring absorbance at 550 nm using an Anthos Labtec systems plate reader.

[2] = system: MDA 468 (ER−) human derived breast carcinoma cells; test: Growth inhibitory assay (MTT), MDA 468; assay type: cell-based; conditions: Breast carcinoma cell, ER− MDA 468, 3 days (72 h) treatment, n=8, representative mean, ^a = biphasic dose response
Protocol: as §1

[3] = system: T47D breast cells; test: Prodrug uptake, conversion and metabolism (HPLC of media), T47D; assay type: in vitro ADME, human
Protocol: (§2) MCF-7 cells were seeded into 25 ml flasks at appropriate densities (5×10^5–5×10^6). After 24 h, medium was changed and drug introduced at a final concentration of 10 μM. Media samples, collected from flasks at time zero and 24 h intervals, were mixed with 1.5-fold volumes of high performance liquid chromatography (HPLC) grade acetonitrile to precipitate protein and centrifuged at 14 000 g for 5 min. Supernatants (600 μl) were mixed with 400 μl 10% acetonitrile in 1% acetic acid and analysed by HPLC. The system consisted of Beckman System Gold equipment (solvent module 128, autosampler 507e and multiple wavelength UV detector 168). Separation of parent compounds and biotransformation products was effected at room temperature on a Phenomenex Aqua C18 reversed-phase column (150×4.6 mm). […] Compounds were detected at 324 nm.
(§3) Uptake and metabolism of compounds 1a and 1b were examined in sensitive breast (MCF-7 and T47D) and insensitive renal (A498) cells using HPLC conditions which allow simultaneous detection of prodrug, parent amine and metabolites. When incubated at 0.1, 1 or 10 μM over 7 days at 37°C, the lysyl-amide compound 1a was most readily removed from the media supporting MCF-7 and T47D cells (Figure 2

[4] = system: A498 renal cells; test: Prodrug uptake, conversion and metabolism (HPLC of media), A498; assay type: in vitro ADME, human
Protocol: as §2, §3

[5] = Stability in human plasma; assay type: in vitro ADME; conditions: 37°C; no free amine detected
Text: Data have been presented describing the in vitro biological properties of alanyl and lysyl amide derivatives of 2-(4-amino-3-methylphenyl)benzothiazoles. Prodrugs are rapidly depleted from nutrient media, generating their parent species in the presence of cells (Figures 2 and 3). In the absence of cells, no spontaneous hydrolysis of the amide bond occurs to release the amine from its amino acid salt. The cleavage of amino acid amides may be catalysed by ubiquitously expressed aminopeptidases, but subsequent bioactivating steps, essential for the mechanism of action of aminophenylbenzothiazoles, take place selectively in sensitive cell lines (e.g. Figure 5). Compounds 1a and 1b were stable when incubated at 37°C with human plasma; specifically, no free amine was detected.

[6] = system: CYP1A1 activity (EROD) in MCF-7 cells; test: Induction of EROD activity in lysates of treated MCF-7 cells; assay type: cell-based, human; conditions: lysates of MCF-7 cells treated with 1 μM, 24 h; negligible activity in untreated lysates; mean of three, s.d. <10%
Protocol: (§4) A sensitive and rapid fluorometric assay was used to measure EROD activity ([Burke et al, 1994]). Incubation mixtures (total 1 ml) consisted of 100 mM Tris-HCl (pH 7.4), 50 μM MgCl2, 100 μM 7-ethoxyresorufin and 100 μl cell homogenate. Homogenates were prepared following treatment of cells for 24 h with compounds 1, 2, 2a, 2b, 3, 3a, 3b, 4, 4a and 4b or vehicle alone and protein content determined (n=3). Thus induction of ethoxyresorufin O-deethylation by agents under study, catalysed by CYP1A1 activity, could be determined. Alternatively, microsomes expressing recombinant CYP1A1 (0.1 mg ml^−1) provided the enzyme source for EROD catalysis, in the presence or absence of drug, in order to determine inhibition of CYP1A1 activity by compounds 1, 2, 2a, 2b, 3, 3a, 3b, 4, 4a and 4b. Incubation mixtures were pre-incubated for 5 min at 37°C before initiation of reaction by addition of NADPH (500 μM). Following further incubations at 37°C (30 min for cell homogenates, 15 min for CYP1A1 microsomes), reactions were terminated by addition of 3 ml ice-cold acetonitrile. Reaction mixtures were centrifuged (1400 r.p.m., 10 min) before analyses of supernatants. Fluorescence was read on a Perkin-Elmer LS-5 luminescence spectrometer (excitation, 530 nm; emission 585 nm). Estimation of resorufin reaction product (pmoles mg^−1 protein, pmoles 100 μg^−1 microsomes), as a measure of CYP1A1 activity, was determined following performance of a resorufin standard curve.

[7] = target: T1, CYP1A1 (Homo sapiens, UniProt P04798); test: Inhibition of recombinant CYP1A1 microsomal EROD activity; assay type: biochemical; conditions: microsomes expressing recombinant CYP1A1, pH 7.4, probe 7-ethoxyresorufin (100 μM); 30 μM agent; incubates without drug = 100% activity; mean of three, s.d. <10%; read-out: Microsomal CYP1A1 EROD activity (% control)
T1 sequence (P04798 1-512): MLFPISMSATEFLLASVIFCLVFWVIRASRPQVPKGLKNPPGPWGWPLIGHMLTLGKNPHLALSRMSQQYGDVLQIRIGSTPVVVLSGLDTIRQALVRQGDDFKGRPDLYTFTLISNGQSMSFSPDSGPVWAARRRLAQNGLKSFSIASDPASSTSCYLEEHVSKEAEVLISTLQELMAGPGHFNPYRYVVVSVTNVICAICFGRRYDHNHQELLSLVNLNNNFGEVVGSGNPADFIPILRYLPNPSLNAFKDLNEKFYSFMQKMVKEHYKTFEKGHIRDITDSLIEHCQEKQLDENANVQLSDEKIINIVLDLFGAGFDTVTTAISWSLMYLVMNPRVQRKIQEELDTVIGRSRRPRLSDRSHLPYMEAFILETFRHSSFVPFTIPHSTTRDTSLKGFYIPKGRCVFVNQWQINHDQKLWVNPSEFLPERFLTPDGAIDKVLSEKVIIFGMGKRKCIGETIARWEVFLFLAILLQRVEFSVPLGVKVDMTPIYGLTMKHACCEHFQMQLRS
Protocol: as §4

[8] = system: CYP1A1 protein expression in MCF-7 cells; test: Western blot of CYP1A1 protein, MCF-7 lysates; assay type: cell-based, human; conditions: 1 μM, 24 h
Protocol: (§5) Whole cell lysates were prepared for examination of CYP1A1 protein expression from untreated MCF-7, IGROV-1 and HCT 116 cultures and following exposure of cells to compounds 1, 2, 2a, 2b, 3, 3a, 3b, 4, 4a and 4b. Following protein determination (n=3, [Bradford, 1976]) and addition of sample buffer, samples were boiled at 95°C for 5 min and solubilised proteins (50 μg) were separated by sodium dodecyl sulphate (SDS) polyacrylamide gel (10%) electrophoresis. Proteins were electroblotted to polyvinylidene difluoride (PVDF) membranes and probed for CYP1A1 protein with polyclonal antiserum specific for human CYP1A1/1A2 (Gentest Corporation). Secondary antibody was conjugated to alkaline phosphatase, and CYP1A1 was detected following brief (<10 min) incubation with bromochloroindolyl phosphate and nitro-blue tetrazolium in alkaline phosphatase buffer. Molecular weight markers and a positive control of recombinant CYP1A1 (Gentest Corporation), included in all blots, confirmed detection of 52 kDa CYP1A1 protein.

[9] = system: MCF-7 cells; test: Prodrug uptake, conversion and metabolism (HPLC of media), MCF-7; assay type: in vitro ADME, human; conditions: for Biotransformation products of liberated parent amine in media: prodrug 10 μM, days 1–7
Protocol: MCF-7 cells were seeded into 25 ml flasks at appropriate densities (5×10^5–5×10^6). After 24 h, medium was changed and drug introduced at a final concentration of 10 μM. Media samples, collected from flasks at time zero and 24 h intervals, were mixed with 1.5-fold volumes of high performance liquid chromatography (HPLC) grade acetonitrile to precipitate protein and centrifuged at 14 000 g for 5 min. Supernatants (600 μl) were mixed with 400 μl 10% acetonitrile in 1% acetic acid and analysed by HPLC. The system consisted of Beckman System Gold equipment (solvent module 128, autosampler 507e and multiple wavelength UV detector 168). Separation of parent compounds and biotransformation products was effected at room temperature on a Phenomenex Aqua C18 reversed-phase column (150×4.6 mm). The mobile phase was formed by increasing, then decreasing the acetonitrile concentration in 1% acetic acid over 20 min by mixing two solutions: acetonitrile-water-acetic acid (10 : 90 : 1, v v^−1) and acetonitrile-water-acetic acid (80 : 20 : 1 v v^−1) and delivered at a flow rate of 1 ml min^−1. Compounds were detected at 324 nm.

[10] = system: CYP1A1 protein expression in HCT 116 cells; test: Western blot of CYP1A1 protein, HCT 116 lysates; assay type: cell-based, human
Protocol: as §5

[11] = target: T1, CYP1A1; parameters: method as in Chua et al, 2000; conditions: ref Chua et al, 2000; cited from earlier work

Row | SMILES | GI50 [1] | GI50 [2] | Hydrolysis of prodrug to parent amine ([3]; 10 μM, sensitive ER+ T47D breast cells, 37°C) | Hydrolysis of prodrug to parent amine ([4]; 10 μM, insensitive A498 renal cells, 37°C) | Stability in human plasma [5] | Induction EROD activity [6] | activity at 15 min, 30 μM [7] | CYP1A1 protein expression (Western blot) [8] | Biotransformation products of liberated parent amine in media [9] | CYP1A1 protein expression (Western blot) [10] | Time of peak media level of regenerated parent amine ([9]; regenerated from amide prodrugs, 7 day incubation) | Time of peak media level of regenerated parent amine ([3]; T47D cells, regenerated from amide prodrugs, 7 day incubation) | Removal of effluxed parent amine from media ([4]; inherently resistant A498 cells, 7 day incubation) | Inhibition of CYP1A1 microsome activity [11]
1 | Cc1cc(-c2nc3ccccc3s2)ccc1NC(=O)[C@H](C)N [Compound 1a] | 0.32 nM | 39.9 nM | rapidly and efficiently hydrolysed | rapidly and efficiently hydrolysed | stable | – | – | – | – | – | – | – | – | –
2 | Cc1cc(-c2nc3ccccc3s2)ccc1NC(=O)[C@@H](N)CCCCN [Compound 1b] | 41.6 nM | 67.1 nM | – | – | stable | – | – | – | – | – | – | – | – | –
3 | Cc1cc(-c2nc3ccc(F)cc3s2)ccc1NC(=O)[C@H](C)N [Compound 3a] | 43.5 nM | 297 nM | – | – | – | 20.40 nM resorufin mg^-1 protein | 28.9% | induced | – | – | – | – | – | –
4 | Cc1cc(-c2nc3cc(F)c(F)cc3s2)ccc1NC(=O)[C@@H](N)CCCCN [Compound 4b] | 30.7 nM | 302 nM | – | – | – | 20.04 nM resorufin mg^-1 protein | 54.9% | induced | – | – | – | – | – | –
5 | Cc1cc(-c2nc3cc(F)ccc3s2)ccc1NC(=O)[C@H](C)N [Compound 2a] | 5.8 nM | 37.7 nM | – | – | – | 28.37 nM resorufin mg^-1 protein | 40.6% | induced | – | – | – | – | – | –
6 | Cc1cc(-c2nc3cc(F)c(F)cc3s2)ccc1N [Compound 4] | < 0.1 nM | 3.55 nM | – | – | – | 32.02 nM resorufin mg^-1 protein | 43.1% | induced | emergence of an oxidative metabolite | – | – | – | – | –
7 | Cc1cc(-c2nc3ccccc3s2)ccc1N [Compound 1, 2-(4-amino-3-methylphenyl)benzothiazole] | < 0.1 nM | < 0.1 nM | – | – | – | 17.58 nM resorufin mg^-1 protein | 22.6% | induced | – | not induced | 3 days | 3 days | negligible net removal | irreversibly inhibited
8 | Cc1cc(-c2nc3ccc(F)cc3s2)ccc1N [Compound 3] | 0.65 nM | 0.73 nM | – | – | – | 32.60 nM resorufin mg^-1 protein | 36.4% | induced | emergence of an oxidative metabolite | not induced | – | – | – | –
9 | Cc1cc(-c2nc3ccc(F)cc3s2)ccc1NC(=O)[C@@H](N)CCCCN [Compound 3b] | 147 nM | 328 nM | – | – | – | 19.88 nM resorufin mg^-1 protein | 47% | induced | – | – | – | – | – | –
10 | Cc1cc(-c2nc3cc(F)c(F)cc3s2)ccc1NC(=O)[C@H](C)N [Compound 4a] | 33 nM | 220 nM | – | – | – | 17.09 nM resorufin mg^-1 protein | 41.9% | induced | – | – | – | – | – | –
